Values quoted from earlier work as cited in US20220143046A1, “COMPOSITION AND METHODS FOR RECTAL DELIVERY OF 4-AAPA AND 5-ASA COMPOUNDS” (9 METERS BIOPHARMA, INC., priority 2019, published 2022).

System: toxin A-induced colonic inflammation
Settings: rats; cited from earlier US patents and McVey et al. 2005

O=C(O)Cc1ccc(/N=N/c2ccc(O)c(C(=O)O)c2)cc1 [INN-108, 5-(4-carboxymethyl-phenylazo)-2-hydroxybenzoic acid]
inhibition of toxin A-induced colonic inflammation: potent inhibitor
